Experiment [1] relates to control sera (pooled serum of ten healthy LUMC hospital workers; commercial negative donor pooled serum from the Dutch bloodbank). It is filed as binding, human. On the set-up: Binding of Control serum LUMC to linear peptides / Binding of Control serum Blood-bank to linear peptides / Binding of Control serum LUMC to looped peptides / Binding of Control Serum Blood-Bank to Looped peptides / Binding of Control serum LUMC to linear peptides of the protein M of SARS-CoV Urbani / Binding of Control serum Blood-bank to linear peptides of the protein M of SARS-CoV Urbani / Binding of Control serum LUMC to looped peptides of the protein M of SARS-CoV Urbani / Binding of Control Serum Blood-Bank to Looped peptides of the protein M of SARS-CoV Urbani: unit not given here.

Experiment [2] concerns rabbit serum obtained by immunizing a rabbit with the SARS-CoV strain Frankfurt 1. It is filed as binding. Details: Binding of a rabbit serum to linear peptides / Binding of a rabbit serum to looped peptides / Rabbit serum linear peptides / Rabbit serum looped peptides / Binding of a rabbit serum to linear peptides of protein N of SARS-CoV Urbani (Rabbit serum linear peptides) / Binding of a rabbit serum to looped/cyclic peptides of protein N of SARS-CoV Urbani (Rabbit serum looped peptides): unit not given here.

Experiment [3] concerns antibodies in sera from SARS patients (sera 1a, 1b, 2, 6, 37, 62, London, SARS-yellow, SARS-green). It counts as binding, human. Details: Binding of serum 6 to linear peptides of protein X1 of SARS-CoV Urbani / Binding of serum 37 to linear peptides of protein X1 of SARS-CoV Urbani / Binding of serum 6 to looped/cyclic peptide (PEPSCAN-ELISA) / Binding of serum 37 to looped/cyclic peptide (PEPSCAN-ELISA) / Binding of serum 37 to looped/cyclic peptides of protein X1 of SARS-CoV Urbani / Binding of serum 6 to linear peptides of protein X2 / Binding of serum 37 to linear peptides of protein X2 / Binding of serum 37 to looped/cyclic peptides of protein X2 of SARS-CoV Urbani / Binding of serum 6 to linear peptides of protein M of SARS-CoV Urbani / Binding of serum 37 to linear peptides of protein M of SARS-CoV Urbani / Binding of serum 6 to looped/cyclic peptides of protein M of SARS-CoV Urbani / Binding of serum 37 to looped/cyclic peptides of protein M of SARS-CoV Urbani / Binding of serum 6 to linear peptides of protein X3 of SARS-CoV Urbani / Binding of serum 37 to linear peptides of protein X3 of SARS-CoV Urbani / Binding of serum 37 to looped/cyclic peptides of protein X3 of SARS-CoV Urbani / Binding of serum 6 to linear peptides of protein X4 of SARS-CoV Urbani / Binding of serum 37 to linear peptides of protein X4 of SARS-CoV Urbani / Binding of serum 37 to looped/cyclic peptides of protein X4 of SARS-CoV Urbani / Binding of serum 6 to linear peptides of protein X5 of SARS-CoV Urbani / Binding of serum 37 to linear peptides of protein X5 of SARS-CoV Urbani / Binding of serum 37 to looped/cyclic peptides of protein X5 of SARS-CoV Urbani / Binding of serum 6 to linear peptides of protein N of SARS-CoV Urbani / Binding of serum 37 to linear peptides of protein N of SARS-CoV Urbani / Binding of serum 6 to linear peptide (PEPSCAN-ELISA) / Binding of serum 1a to looped/cyclic peptides of protein N of SARS-CoV Urbani / Binding of serum 1b to looped/cyclic peptides of protein N of SARS-CoV Urbani / Binding of serum 2 to looped/cyclic peptides of protein N of SARS-CoV Urbani / Binding of serum 6 to looped/cyclic peptides of protein N of SARS-CoV Urbani / Binding of serum 37 to looped/cyclic peptides of protein N of SARS-CoV Urbani / Binding of serum 62 to looped/cyclic peptides of protein N of SARS-CoV Urbani / Binding of serum London to looped/cyclic peptides of protein N of SARS-CoV Urbani / Binding of serum SARS-green to looped/cyclic peptides of protein N of SARS-CoV Urbani: unit not given here.

On to QLLEQWNLVIGFLFL, for which, in experiment [1], the “Binding of Control Serum Blood-Bank to Looped peptides of the protein M of SARS-CoV Urbani” value was found to be 0.5, the “Binding of Control serum Blood-bank to linear peptides of the protein M of SARS-CoV Urbani” value was determined as 0.5, the “Binding of Control serum LUMC to linear peptides of the protein M of SARS-CoV Urbani” value is reported as 0.3 and the “Binding of Control serum LUMC to looped peptides of the protein M of SARS-CoV Urbani” value is listed as 0.7. Moreover, in experiment [2], the “Rabbit serum linear peptides” value worked out at 0.2 and the “Rabbit serum looped peptides” value amounted to 0.0. Further, in experiment [3], the “Binding of serum 1a to linear peptides of protein M of SARS-CoV Urbani” value worked out at 0.7, the “Binding of serum 1a to looped/cyclic peptides of protein M of SARS-CoV Urbani” value is reported as 0.5, the “Binding of serum 1b to linear peptides of protein M of SARS-CoV Urbani” value came to 0.4 and the “Binding of serum 1b to looped/cyclic peptides of protein M of SARS-CoV Urbani” value was 0.5. In experiment [3], the “Binding of serum 2 to linear peptides of protein M of SARS-CoV Urbani” value came to 0.5, the “Binding of serum 2 to looped/cyclic peptides of protein M of SARS-CoV Urbani” value amounted to 0.4, the “Binding of serum 6 to linear peptides of protein M of SARS-CoV Urbani” value was 0.4 and the “Binding of serum 6 to looped/cyclic peptides of protein M of SARS-CoV Urbani” value came out at 0.5. Besides, in experiment [3], the “Binding of serum 37 to linear peptides of protein M of SARS-CoV Urbani” value amounted to 0.6, the “Binding of serum 37 to looped/cyclic peptides of protein M of SARS-CoV Urbani” value came to 0.5, the “Binding of serum 62 to linear peptides of protein M of SARS-CoV Urbani” value was 0.6 and the “Binding of serum 62 to looped/cyclic peptides of protein M of SARS-CoV Urbani” value is reported as 0.4. Besides, in experiment [3], the “Binding of serum London to linear peptides of protein M of SARS-CoV Urbani” value is on record as 0.4, the “Binding of serum London to looped/cyclic peptides of protein M of SARS-CoV Urbani” value was found to be 0.2, the “Binding of serum SARS-green to linear peptides of protein M of SARS-CoV Urbani” value is listed as 0.2 and the “Binding of serum SARS-green to looped/cyclic peptides of protein M of SARS-CoV Urbani” value is on record as 0.3. Moreover, in experiment [3], the “Binding of serum SARS-yellow to linear peptides of protein M of SARS-CoV Urbani” value came out at 0.0 and the “Binding of serum SARS-yellow to looped/cyclic peptides of protein M of SARS-CoV Urbani” value is listed as 0.7.

As for QLRARSVSPKLFIRQ, in experiment [1], the “Binding of Control Serum Blood-Bank to Looped peptides” value is on record as 0.9, the “Binding of Control serum Blood-bank to linear peptides” value is recorded as 0.7, the “Binding of Control serum LUMC to linear peptides” value is recorded as 0.6 and the “Binding of Control serum LUMC to looped peptides” value was 0.8. Further, the “Recognition of the peptide by the rabbit serum” value in experiment [2] is on record as “recognized”. Moreover, in experiment [3], the “Binding of serum 1a to linear peptides of protein X4 of SARS-CoV Urbani” value is on record as 0.7, the “Binding of serum 1a to looped/cyclic peptides of protein X4 of SARS-CoV Urbani” value is listed as 0.7, the “Binding of serum 1b to linear peptides of protein X4 of SARS-CoV Urbani” value is on record as 0.6 and the “Binding of serum 1b to looped/cyclic peptides of protein X4 of SARS-CoV Urbani” value is given as 0.6. In experiment [3], the “Binding of serum 2 to linear peptides of protein X4 of SARS-CoV Urbani” value is listed as 0.6, the “Binding of serum 2 to looped/cyclic peptides of protein X4 of SARS-CoV Urbani” value is listed as 0.8, the “Binding of serum 6 to linear peptides of protein X4 of SARS-CoV Urbani” value turned out to be 0.9 and the “Binding of serum 6 to looped/cyclic peptides of protein X4 of SARS-CoV Urbani” value amounted to 0.9. Further, in experiment [3], the “Binding of serum 37 to linear peptides of protein X4 of SARS-CoV Urbani” value is on record as 0.7, the “Binding of serum 37 to looped/cyclic peptides of protein X4 of SARS-CoV Urbani” value was 0.6, the “Binding of serum 62 to linear peptides of protein X4 of SARS-CoV Urbani” value is recorded as 0.7 and the “Binding of serum 62 to looped/cyclic peptides of protein X4 of SARS-CoV Urbani” value came to 0.6. Further, in experiment [3], the “Binding of serum London to linear peptides of protein X4 of SARS-CoV Urbani” value is 0.8, the “Binding of serum London to looped/cyclic peptides of protein X4 of SARS-CoV Urbani” value was 0.4, the “Binding of serum SARS-green to linear peptides of protein X4 of SARS-CoV Urbani” value came out at 0.6 and the “Binding of serum SARS-green to looped/cyclic peptides of protein X4 of SARS-CoV Urbani” value is 0.4. In experiment [3], the “Binding of serum SARS-yellow to linear peptides of protein X4 of SARS-CoV Urbani” value was determined as 0.3 and the “Binding of serum SARS-yellow to looped/cyclic peptides of protein X4 of SARS-CoV Urbani” value worked out at 0.8.

Take QLSLLKVTAFQHQNS: in experiment [1], the “Binding of Control Serum Blood-Bank to Looped peptides” value amounted to 0.5, the “Binding of Control serum Blood-bank to linear peptides” value came to 0.4, the “Binding of Control serum LUMC to linear peptides” value turned out to be 0.6 and the “Binding of Control serum LUMC to looped peptides” value was 0.6. Further, in experiment [2], the “Binding of a rabbit serum to linear peptides” value is 0.6 and the “Binding of a rabbit serum to looped peptides” value was 0.5. In addition, in experiment [3], the “Binding of serum 1a to linear peptides of protein X2” value was 0.5, the “Binding of serum 1a to looped/cyclic peptides of protein X2 of SARS-CoV Urbani” value was 0.5, the “Binding of serum 1b to linear peptides of protein X2” value is given as 0.4 and the “Binding of serum 1b to looped/cyclic peptides of protein X2 of SARS-CoV Urbani” value came out at 0.5. For the same sequence, in experiment [3], the “Binding of serum 2 to linear peptides of protein X2” value is reported as 0.3, the “Binding of serum 2 to looped/cyclic peptides of protein X2 of SARS-CoV Urbani” value worked out at 0.3, the “Binding of serum 6 to linear peptides of protein X2” value is on record as 0.4 and the “Binding of serum 6 to looped/cyclic peptides of protein X2 of SARS-CoV Urbani” value amounted to 0.3. Moreover, in experiment [3], the “Binding of serum 37 to linear peptides of protein X2” value was determined as 0.5, the “Binding of serum 37 to looped/cyclic peptides of protein X2 of SARS-CoV Urbani” value is listed as 0.4, the “Binding of serum 62 to linear peptides of protein X2” value is recorded as 0.3 and the “Binding of serum 62 to looped/cyclic peptides of protein X2 of SARS-CoV Urbani” value is listed as 0.6. For the same sequence, in experiment [3], the “Binding of serum London to linear peptides of protein X2” value is 0.3, the “Binding of serum London to looped/cyclic peptides of protein X2 of SARS-CoV Urbani” value amounted to 0.3, the “Binding of serum SARS-green to linear peptides of protein X2” value worked out at 0.1 and the “Binding of serum SARS-green to looped/cyclic peptides of protein X2 of SARS-CoV Urbani” value was determined as 0.2. Moreover, in experiment [3], the “Binding of serum SARS-yellow to linear peptides of protein X2” value worked out at 0.1 and the “Binding of serum SARS-yellow to looped/cyclic peptides of protein X2 of SARS-CoV Urbani” value is listed as 0.3.

As to QQELYSPLFLIVAAL, in experiment [1], the “Binding of Control Serum Blood-Bank to Looped peptides” value was found to be 0.6, the “Binding of Control serum Blood-bank to linear peptides” value was 0.5, the “Binding of Control serum LUMC to linear peptides” value is 0.4 and the “Binding of Control serum LUMC to looped peptides” value worked out at 0.6. Further, in experiment [2], the “Rabbit serum linear peptides” value turned out to be 0.4 and the “Rabbit serum looped peptides” value came to 0.4. Moreover, in experiment [3], the “Binding of serum 1a to linear peptides of protein X4 of SARS-CoV Urbani” value is 0.7, the “Binding of serum 1a to looped/cyclic peptides of protein X4 of SARS-CoV Urbani” value came to 0.7, the “Binding of serum 1b to linear peptides of protein X4 of SARS-CoV Urbani” value was determined as 0.5 and the “Binding of serum 1b to looped/cyclic peptides of protein X4 of SARS-CoV Urbani” value worked out at 0.4. In addition, in experiment [3], the “Binding of serum 2 to linear peptides of protein X4 of SARS-CoV Urbani” value turned out to be 0.5, the “Binding of serum 2 to looped/cyclic peptides of protein X4 of SARS-CoV Urbani” value was found to be 0.6, the “Binding of serum 6 to linear peptides of protein X4 of SARS-CoV Urbani” value came to 0.7 and the “Binding of serum 6 to looped/cyclic peptides of protein X4 of SARS-CoV Urbani” value amounted to 0.4. For the same sequence, in experiment [3], the “Binding of serum 37 to linear peptides of protein X4 of SARS-CoV Urbani” value is recorded as 0.7, the “Binding of serum 37 to looped/cyclic peptides of protein X4 of SARS-CoV Urbani” value is reported as 0.6, the “Binding of serum 62 to linear peptides of protein X4 of SARS-CoV Urbani” value is on record as 0.6 and the “Binding of serum 62 to looped/cyclic peptides of protein X4 of SARS-CoV Urbani” value was 0.6. Further, in experiment [3], the “Binding of serum London to linear peptides of protein X4 of SARS-CoV Urbani” value came to 0.8, the “Binding of serum London to looped/cyclic peptides of protein X4 of SARS-CoV Urbani” value is reported as 0.3, the “Binding of serum SARS-green to linear peptides of protein X4 of SARS-CoV Urbani” value came to 0.6 and the “Binding of serum SARS-green to looped/cyclic peptides of protein X4 of SARS-CoV Urbani” value was found to be 0.5. Moreover, in experiment [3], the “Binding of serum SARS-yellow to linear peptides of protein X4 of SARS-CoV Urbani” value turned out to be 0.6 and the “Binding of serum SARS-yellow to looped/cyclic peptides of protein X4 of SARS-CoV Urbani” value was 0.7.

The values are drawn from patent US20070128217A1 (priority 2003, published 2007).
